Literature values as cited in patent US20040175402A1, “Formulation” (priority 2001, published 2004).

Tests used:
[1] = system: human breast cancer cells; conditions: human breast cancer cells in vitro

In the case of `C[C@]12CC[C@@H]3c4ccc(O)cc4C[C@@H](CCCCCCCCC[S+]([O-])CCCC(F)(F)C(F)(F)F)[C@H]3[C@@H]1CC[C@@H]2O` (stereo partly drawn) [Fulvestrant, 7α-[9-(4,4,5,5,5-Pentafluoropentylsulphinyl)nonyl]oestra-1,3-5(10)-triene-3,17β-diol], the “block of uterotrophic action of oestradiol” value (monkeys) is listed as “blocks completely the uterotrophic action of oestradiol”, the “block of uterotrophic action of oestradiol” value (rats) is listed as “blocks completely the uterotrophic action of oestradiol” and the “block of uterotrophic action of oestradiol” value (mice) is listed as “blocks completely the uterotrophic action of oestradiol”. For the same molecule, the “block of growth stimulatory action of oestradiol” value [1] was “completely blocks the growth stimulatory action of oestradiol”.
